Experimental data as given in US20210380548A1, “Fused [1,2,4]Thiadiazine Derivatives Which Act as KAT Inhibitors of the MYST Family” (CTxT Pty Limited, priority 2017, published 2021).

Columns and labels:
HBO-KAT7 [1] = biological target: T1, HBO-KAT7 (Homo sapiens, UniProt O95251); experiment: Revised Acetyltransferase Biochemical Assay, KAT7; conditions: Table 9 (HBO-KAT7), 1 μM Acetyl coenzyme A
T1 construct: encoding amino acid residues 325 to 611 (Uniprot 095251-1) of human KAT7; made in house; host or cells: E. coli BL21 DE3 RIL

MOF-KAT8 [2] = biological target: T2, MOF-KAT8 (Homo sapiens, UniProt Q9H7Z6); experiment: Revised Acetyltransferase Biochemical Assay, KAT8
T2 sequence (Q9H7Z6 177-447): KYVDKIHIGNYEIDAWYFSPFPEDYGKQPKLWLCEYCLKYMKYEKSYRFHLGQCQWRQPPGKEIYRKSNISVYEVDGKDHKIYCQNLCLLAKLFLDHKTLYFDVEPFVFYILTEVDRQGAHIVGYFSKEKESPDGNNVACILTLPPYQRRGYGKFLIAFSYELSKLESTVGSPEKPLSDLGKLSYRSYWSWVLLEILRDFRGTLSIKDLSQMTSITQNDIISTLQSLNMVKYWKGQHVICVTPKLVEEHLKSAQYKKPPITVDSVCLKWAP

[3] = system: histone H3 Lysine 14 acetylation (HBO1 mediated) in U2OS cells; experiment: Histone H3 Lysine 14 Acetylation Biomarker Assay (384-well, U2OS); format: cell-based; conditions: Homo sapiens, serum free medium, 24 hours incubation
Method: Compounds may be tested for their ability to inhibit acetylation of the histone H3 Lysine 14 (which is HBO1 mediated) marker in the following assay:
The cell line U2OS was seeded at a density of 3,000 cells per well in 384-well optical quality tissue culture plates in RPMI medium supplemented with 10% foetal bovine serum and 10 mM Hepes. The cells were allowed to adhere for 24 hours under standard culture conditions (37 degree Celsius, 5% CO2). At the end of this period the cells were washed with serum free medium. Compound dilutions prepared in DMSO were added to the serum free medium, with negative control wells reserved for treatment with DMSO only and 100% inhibition positive controls receiving a potent inhibitor compound (e.g. (Z)-4-fluoro-N-((3-hydroxyphenyl)sulfonyl)-5-methyl-[1,1′-biphenyl]-3-carbohydrazonic acid) at 10 μM concentration. After incubation for 24 hours, the cells were fixed with 4% formaldehyde in PBS for 15 minutes at room temperature, washed with phosphate buffer saline and blocked with blocking buffer containing 0.2% TritonX100 and 2% BSA. Anti-H3K14ac specific antibody (Cell Signalling Technologies) in blocking buffer was added and incubated overnight at 4 degree Celsius. After washing, a secondary antibody labelled with AlexaFluor 488 dye (ThermoFisher) and Hoechst 33342 (1 μg/mL, Life Technologies) were added for 2 hours incubation at room temperature. Plates were washed and read on a
PerkinElmer Opera HCS high content imaging platform. Using a Columbus image analysis pipeline, individual nuclei were located by Hoechst 33342 stain and the acetylation level was calculated from the AlexaFluor 488-related intensity in the same area. The resulting mean intensity per cell was converted to percent inhibition relative to controls on the same plate and the data fitted against a four-parameter logistic model to determine the 50% inhibitory concentration (IC50).

TIP60-KAT5 = biological target: T3, TIP60-KAT5 (Homo sapiens, UniProt Q92993); experiment: Revised Acetyltransferase Biochemical Assay, KAT5; conditions: 10 nM KAT5, 1 μM AcCoA, 100 nM histone H4, 90 min
T3 construct: encoding amino acid residues 2 to 461 (Uniprot Q92993-2) of human KAT5 isoform; made in house; host or cells: E. coli BL21 DE3

[4] = system: histone H2A.Z Lysine 7 acetylation (TIP60 mediated) in U2OS cells; experiment: H2A.Z Lysine 7 Acetylation Biomarker Assay (384-well, U2OS); format: cell-based; conditions: Homo sapiens, serum free medium, 24 hours incubation
Method: Compounds may be tested for their ability to inhibit the histone H2A.Z Lysine 7 acetylation marker (which is TIP60 mediated) in the following assay:
The cell line U2OS was seeded at a density of 3,000 cells per well in 384-well optical quality tissue culture plates in RPMI medium supplemented with 10% foetal bovine serum and 10 mM Hepes. The cells were allowed to adhere for 24 hours under standard culture conditions (37 degree Celsius, 5% CO2). At the end of this period the cells were washed with serum free medium. […] After incubation for 24 hours, the cells were fixed with 4% formaldehyde in PBS for 15 minutes at room temperature, washed with phosphate buffer saline and blocked with blocking buffer containing 0.2% TritonX100 and 2% BSA. Anti-H2A.ZK7ac specific antibody (Abcam) in blocking buffer was added and incubated overnight at 4 degree Celsius. After washing, a secondary antibody labelled with AlexaFluor 488 dye (ThermoFisher) and Hoechst 33342 (1 μg/mL, Life Technologies) were added for 2 hours incubation at room temperature. Plates were washed and read on a PerkinElmer Opera HCS high content imaging platform. Using a Columbus image analysis pipeline, individual nuclei were located by Hoechst 33342 stain and the acetylation level was calculated from the AlexaFluor 488-related intensity in the same area. The resulting mean intensity per cell was converted to percent inhibition relative to controls on the same plate and the data fitted against a four-parameter logistic model to determine the 50% inhibitory concentration (IC50).

MOZ-KAT6A = biological target: T4, MOZ-KAT6A (Homo sapiens, UniProt Q92794, A567V); experiment: Revised Acetyltransferase Biochemical Assay, KAT6A; conditions: Table 8 (MOZ-KAT6A), 1 μM Acetyl coenzyme A
T4 construct: encoding amino acid residues 507 to 778 (Uniprot Q92794-1) of human KAT6A; made in house; host or cells: E. coli BL21 DE3

MOF-KAT8 [5] = biological target: T2, MOF-KAT8; experiment: Acetyltransferase biochemical assay (AlphaScreen), KAT8; conditions: Table 4 (MOF-KAT8); 0.4 μM Acetyl coenzyme A, histone H4, 20 nM enzyme
HBO-KAT7 [6] = biological target: T1, HBO-KAT7; experiment: Acetyltransferase biochemical assay (AlphaScreen), KAT7; conditions: Table 3 (HBO-KAT7); 0.4 μM Acetyl coenzyme A, histone H3.1, 40 nM enzyme

T1 sequence (O95251 with tags, fused parts or gaps): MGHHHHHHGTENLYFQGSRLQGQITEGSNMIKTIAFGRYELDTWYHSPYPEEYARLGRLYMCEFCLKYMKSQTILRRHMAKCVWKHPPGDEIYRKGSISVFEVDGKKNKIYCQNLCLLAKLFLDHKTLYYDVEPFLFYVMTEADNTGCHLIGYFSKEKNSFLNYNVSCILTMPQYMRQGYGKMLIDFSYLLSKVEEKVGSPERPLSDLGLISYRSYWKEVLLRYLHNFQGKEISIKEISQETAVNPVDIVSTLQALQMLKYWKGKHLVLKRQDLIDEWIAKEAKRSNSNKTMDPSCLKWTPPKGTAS
T4 sequence (Q92794 507-778 A567V limits assumed): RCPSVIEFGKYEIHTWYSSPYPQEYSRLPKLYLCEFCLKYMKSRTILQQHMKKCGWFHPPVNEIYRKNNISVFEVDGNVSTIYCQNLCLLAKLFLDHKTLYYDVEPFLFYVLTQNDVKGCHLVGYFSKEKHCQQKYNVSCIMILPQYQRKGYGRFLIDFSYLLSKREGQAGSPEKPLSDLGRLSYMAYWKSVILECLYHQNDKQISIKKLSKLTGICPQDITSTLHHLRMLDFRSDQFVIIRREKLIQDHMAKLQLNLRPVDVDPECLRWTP
T3 sequence (Q92993 2-461 isoform Q92993-2): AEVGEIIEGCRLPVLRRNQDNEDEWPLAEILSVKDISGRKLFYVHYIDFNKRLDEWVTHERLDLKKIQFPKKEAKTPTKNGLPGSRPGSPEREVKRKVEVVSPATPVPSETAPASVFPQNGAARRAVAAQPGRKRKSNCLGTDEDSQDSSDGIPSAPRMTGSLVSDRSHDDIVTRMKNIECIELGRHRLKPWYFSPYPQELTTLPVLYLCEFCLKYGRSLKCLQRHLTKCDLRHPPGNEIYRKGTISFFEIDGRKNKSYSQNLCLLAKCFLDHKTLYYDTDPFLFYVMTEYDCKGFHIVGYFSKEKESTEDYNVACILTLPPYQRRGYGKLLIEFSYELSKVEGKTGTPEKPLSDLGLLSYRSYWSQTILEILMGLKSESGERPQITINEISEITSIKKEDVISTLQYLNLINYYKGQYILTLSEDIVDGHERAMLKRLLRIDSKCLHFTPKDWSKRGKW

SMILES: O=C(NCC(c1cccc(O)c1)c1ncco1)C1=Nc2ccc(Br)cc2S(=O)(=O)N1 (stereo not shown) [Example 214, 7-Bromo-N-(2-(3-hydroxyphenyl)-2-(oxazol-2-yl)ethyl)-2H-benzo[e][1,2,4]thiadiazine-3-carboxamide 1,1-dioxide]
- IC50 (HBO-KAT7 [1]): 50 nM
- IC50 (MOF-KAT8 [2]): 20100 nM
- IC50 [3]: 3600 nM
- IC50 (TIP60-KAT5): 70 nM
- IC50 [4]: 8780 nM
- IC50 (MOZ-KAT6A): 9 nM
- IC50 (MOF-KAT8 [5]): 7060 nM

SMILES: O=C(NCC(c1cccc(OCC2CC2)c1)c1ncco1)C1=Nc2ccc(I)cc2S(=O)(=O)N1 (stereo not shown) [Example 217, N-(2-(3-(Cyclopropylmethoxy)phenyl)-2-(oxazol-2-yl)ethyl)-7-iodo-2H-benzo[e][1,2,4]thiadiazine-3-carboxamide 1,1-dioxide]
- IC50 (HBO-KAT7 [6]): 1740 nM
- IC50 (HBO-KAT7 [1]): 1190 nM
- IC50 [3]: 1290 nM
- IC50 (TIP60-KAT5): 1460 nM
- IC50 [4]: 32100 nM
- IC50 (MOZ-KAT6A): 265 nM
- IC50 (MOF-KAT8 [5]): 22500 nM

SMILES: O=C(NCC(CO)c1ccccc1)C1=Nc2ccc(Cl)cc2S(=O)(=O)N1 (stereo not shown) [Example 225, 7-Chloro-N-(3-hydroxy-2-phenylpropyl)-2H-benzo[e][1,2,4]thiadiazine-3-carboxamide 1,1-dioxide]
- IC50 (HBO-KAT7 [1]): 1460 nM
- IC50 (MOF-KAT8 [2]): > 125000 nM
- IC50 [3]: > 40000 nM
- IC50 (TIP60-KAT5): 5120 nM
- IC50 [4]: > 40000 nM
- IC50 (MOZ-KAT6A): 447 nM

SMILES: COCC(CNC(=O)C1=Nc2ccc(Cl)cc2S(=O)(=O)N1)c1ccccc1 (stereo not shown) [Example 226, 7-Chloro-N-(3-methoxy-2-phenylpropyl)-2H-benzo[e][1,2,4]thiadiazine-3-carboxamide 1,1-dioxide]
- IC50 (HBO-KAT7 [1]): 1930 nM
- IC50 (MOF-KAT8 [2]): > 125000 nM
- IC50 [3]: 24400 nM
- IC50 (TIP60-KAT5): 3730 nM
- IC50 [4]: > 40000 nM
- IC50 (MOZ-KAT6A): 75 nM

SMILES: O=C(NCC(c1ncco1)c1ccccc1O)C1=Nc2ccc(I)cc2S(=O)(=O)N1 (stereo not shown) [Example 228, N-(2-(2-Hydroxyphenyl)-2-(oxazol-2-yl)ethyl)-7-iodo-2H-benzo[e][1,2,4]thiadiazine-3-carboxamide 1,1-dioxide]
- IC50 (HBO-KAT7 [1]): 92 nM
- IC50 (MOF-KAT8 [2]): 9660 nM
- IC50 [3]: 3250 nM
- IC50 (TIP60-KAT5): 111 nM
- IC50 [4]: 5710 nM
- IC50 (MOZ-KAT6A): 7 nM
- IC50 (MOF-KAT8 [5]): 6520 nM

SMILES: Cc1ccccc1C(CNC(=O)C1=Nc2ccc(I)cc2S(=O)(=O)N1)c1ncco1 (stereo not shown) [Example 237, 7-iodo-N-(2-(oxazol-2-yl)-2-(o-tolyl)ethyl)-2H-benzo[e][1,2,4]thiadiazine-3-carboxamide 1,1-dioxide]
- IC50 (HBO-KAT7 [1]): 121 nM
- IC50 (MOF-KAT8 [2]): 15300 nM
- IC50 [3]: 498 nM
- IC50 (TIP60-KAT5): 163 nM
- IC50 [4]: 3410 nM
- IC50 (MOZ-KAT6A): 10 nM
- IC50 (MOF-KAT8 [5]): 6350 nM

SMILES: COCc1cnn(-c2ccccc2CCNC(=O)C2=Nc3ccc(I)cc3S(=O)(=O)N2)n1 [Example 239, 7-iodo-N-(2-(4-(methoxymethyl)-2H-1,2,3-triazol-2-yl)phenethyl)-2H-benzo[e][1,2,4]thiadiazine-3-carboxamide 1,1-dioxide]
- IC50 (HBO-KAT7 [1]): 686 nM
- IC50 (MOF-KAT8 [2]): 75600 nM
- IC50 [3]: 19200 nM
- IC50 (TIP60-KAT5): 597 nM
- IC50 (MOZ-KAT6A): 17 nM
- IC50 (MOF-KAT8 [5]): > 125000 nM

SMILES: O=C(NCCc1ccccc1-n1cccn1)C1=Nc2ccc(I)cc2S(=O)(=O)N1 [Example 240, N-(2-(1H-pyrazol-1-yl)phenethyl)-7-iodo-2H-benzo[e][1,2,4]thiadiazine-3-carboxamide 1,1-dioxide]
- IC50 (HBO-KAT7 [1]): 134 nM
- IC50 (MOF-KAT8 [2]): 62600 nM
- IC50 [3]: 3320 nM
- IC50 (TIP60-KAT5): 309 nM
- IC50 [4]: 11200 nM
- IC50 (MOZ-KAT6A): 21 nM
